The values below come from US8410112B2, “Compounds useful as inhibitors of ATR kinase” (Vertex Pharmaceuticals Incorporated, priority 2008, dated 2013).

The target in this test is T1, full-length ATR (Homo sapiens, UniProt Q13535).
T1 construct: in the presence of 5 nM full-length ATR
T1 sequence (Q13535 whole entry): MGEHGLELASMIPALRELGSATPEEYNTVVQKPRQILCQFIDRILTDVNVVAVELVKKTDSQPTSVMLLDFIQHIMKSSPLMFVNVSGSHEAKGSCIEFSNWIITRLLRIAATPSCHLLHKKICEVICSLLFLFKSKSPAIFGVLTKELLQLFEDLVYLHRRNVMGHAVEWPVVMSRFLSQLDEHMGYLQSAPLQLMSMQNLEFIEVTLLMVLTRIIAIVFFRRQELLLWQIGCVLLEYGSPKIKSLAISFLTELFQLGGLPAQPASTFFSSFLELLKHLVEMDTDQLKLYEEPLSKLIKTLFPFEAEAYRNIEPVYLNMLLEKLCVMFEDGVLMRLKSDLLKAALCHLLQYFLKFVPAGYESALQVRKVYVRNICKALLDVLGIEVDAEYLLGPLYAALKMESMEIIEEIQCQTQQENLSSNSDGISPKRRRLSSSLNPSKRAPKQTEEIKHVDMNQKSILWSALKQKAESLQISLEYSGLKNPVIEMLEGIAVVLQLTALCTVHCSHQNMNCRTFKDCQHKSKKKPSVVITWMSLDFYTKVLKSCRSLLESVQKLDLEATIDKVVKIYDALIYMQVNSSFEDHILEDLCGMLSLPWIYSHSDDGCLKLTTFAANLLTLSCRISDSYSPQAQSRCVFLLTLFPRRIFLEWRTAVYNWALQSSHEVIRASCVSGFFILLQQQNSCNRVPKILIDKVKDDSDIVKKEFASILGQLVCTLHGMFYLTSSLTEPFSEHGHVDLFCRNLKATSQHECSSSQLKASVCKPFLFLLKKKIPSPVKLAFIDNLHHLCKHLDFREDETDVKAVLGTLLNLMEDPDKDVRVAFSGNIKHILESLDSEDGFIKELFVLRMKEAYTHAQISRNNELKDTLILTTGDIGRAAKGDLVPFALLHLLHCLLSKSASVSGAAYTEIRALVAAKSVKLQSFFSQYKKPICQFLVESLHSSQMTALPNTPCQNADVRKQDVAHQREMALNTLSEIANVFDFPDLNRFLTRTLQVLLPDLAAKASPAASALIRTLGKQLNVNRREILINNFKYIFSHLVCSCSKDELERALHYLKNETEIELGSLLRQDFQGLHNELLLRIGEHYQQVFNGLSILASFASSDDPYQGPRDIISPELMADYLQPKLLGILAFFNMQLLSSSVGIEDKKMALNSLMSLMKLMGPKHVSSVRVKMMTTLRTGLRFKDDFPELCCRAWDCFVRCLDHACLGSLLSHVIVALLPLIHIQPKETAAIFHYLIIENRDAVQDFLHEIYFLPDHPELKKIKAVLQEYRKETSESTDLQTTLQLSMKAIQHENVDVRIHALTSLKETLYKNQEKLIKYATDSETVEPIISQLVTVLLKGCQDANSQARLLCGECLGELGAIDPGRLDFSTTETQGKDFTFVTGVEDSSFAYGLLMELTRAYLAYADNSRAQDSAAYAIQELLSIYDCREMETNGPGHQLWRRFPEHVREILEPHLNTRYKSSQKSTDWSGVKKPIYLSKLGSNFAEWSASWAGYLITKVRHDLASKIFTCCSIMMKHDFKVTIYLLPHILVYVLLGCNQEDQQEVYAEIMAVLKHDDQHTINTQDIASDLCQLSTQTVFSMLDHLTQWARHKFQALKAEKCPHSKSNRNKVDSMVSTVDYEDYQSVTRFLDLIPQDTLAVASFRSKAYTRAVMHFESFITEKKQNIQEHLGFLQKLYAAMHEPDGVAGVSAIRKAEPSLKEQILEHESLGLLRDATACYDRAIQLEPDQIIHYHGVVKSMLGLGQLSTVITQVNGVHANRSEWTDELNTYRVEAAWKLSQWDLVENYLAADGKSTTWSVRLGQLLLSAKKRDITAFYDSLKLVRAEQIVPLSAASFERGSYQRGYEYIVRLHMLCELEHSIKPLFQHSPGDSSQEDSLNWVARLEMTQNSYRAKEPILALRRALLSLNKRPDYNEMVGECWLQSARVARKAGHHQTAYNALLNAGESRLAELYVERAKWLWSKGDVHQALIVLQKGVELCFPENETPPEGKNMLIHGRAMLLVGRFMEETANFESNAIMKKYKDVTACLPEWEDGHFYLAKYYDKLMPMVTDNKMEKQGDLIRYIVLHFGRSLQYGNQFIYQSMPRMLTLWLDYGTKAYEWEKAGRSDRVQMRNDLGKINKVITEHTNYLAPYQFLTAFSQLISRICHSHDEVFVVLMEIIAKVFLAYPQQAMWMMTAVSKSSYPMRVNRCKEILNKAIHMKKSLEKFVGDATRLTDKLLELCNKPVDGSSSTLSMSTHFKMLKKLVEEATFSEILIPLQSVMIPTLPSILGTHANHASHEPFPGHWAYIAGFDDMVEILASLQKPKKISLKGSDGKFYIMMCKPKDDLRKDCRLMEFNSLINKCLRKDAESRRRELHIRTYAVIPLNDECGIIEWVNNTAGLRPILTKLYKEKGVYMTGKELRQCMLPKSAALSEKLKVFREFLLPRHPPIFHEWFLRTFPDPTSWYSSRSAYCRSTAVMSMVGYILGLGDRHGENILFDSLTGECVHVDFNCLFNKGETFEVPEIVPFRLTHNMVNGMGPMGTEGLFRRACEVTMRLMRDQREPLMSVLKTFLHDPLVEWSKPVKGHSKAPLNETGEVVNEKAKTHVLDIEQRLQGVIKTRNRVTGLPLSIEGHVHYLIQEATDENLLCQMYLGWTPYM
Nature of the test: ATR Inhibition Assay (radioactive-phosphate incorporation). It counts as biochemical. The settings on record: Ki(app); 5 nM full-length ATR, 10 μM ATP, 800 μM target peptide, 25° C. An outline of the steps: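 After a 10-min pre-incubation of compound with 5 nM enzyme at 25 °C, ATP was added to start the reaction (final 10 μM [γ-33P]ATP, 800 μM peptide; Tris/HCl pH 7.5, MgCl2, DTT), which ran 24 h. Incorporated 33P was captured on phosphocellulose filters, and Ki(app) was fitted by non-linear regression.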
Take `CC(C)(C)C(=O)N[C@H]1CCN(c2cnc(N)c(-c3nc4ccccc4[nH]3)n2)C1` [Compound I-111, (S)-N-(1-(5-amino-6-(1H-benzo[d]imidazol-2-yl)pyrazin-2-yl)pyrrolidin-3-yl)-2,2-dimethylpropanamide]: the Ki is 100 to 1000 nM. For `CCS(=O)(=O)N1CCN(c2cnc(N)c(-c3nnc(-c4ccco4)o3)n2)CC1` [Compound I-297, 5-(4-ethylsulfonylpiperazin-1-yl)-3-[5-(2-furyl)-1,3,4-oxadiazol-2-yl]pyrazin-2-amine], the Ki fell in the range of 100 to 1000 nM. Turning to `CCS(=O)(=O)N1CC=C(c2cnc(N)c(C(=O)Nc3ccccn3)n2)CC1` [Compound I-171, 3-amino-6-(1-(ethylsulfonyl)-1,2,3,6-tetrahydropyridin-4-yl)-N-(pyridin-2-yl)pyrazine-2-carboxamide], the Ki was 100 to 1000 nM. For the compound `CCS(=O)(=O)N1CCN(c2cnc(N)c(-c3nc4ccc(C)cc4[nH]3)n2)CC1` [Compound I-6, 5-(4-(ethylsulfonyl)piperazin-1-yl)-3-(6-methyl-1H-benzo[d]imidazol-2-yl)pyrazin-2-amine], the Ki fell in the range of 100 to 1000 nM. The same measure for `CC(=O)N1CC=C(c2cnc(N)c(-c3nc4ccccc4[nH]3)n2)CC1` [Compound I-136, 1-(4-(5-amino-6-(1H-benzo[d]imidazol-2-yl)pyrazin-2-yl)-5,6-dihydropyridin-1(2H)-yl)ethanone]: less than 100 nM; for `CCS(=O)(=O)N1CC=C(c2cnc(N)c(-c3nc4ccc(C)c(C)c4[nH]3)n2)CC1` [Compound I-152, 3-(6,7-dimethyl-1H-benzo[d]imidazol-2-yl)-5-(1-(ethylsulfonyl)-1,2,3,6-tetrahydropyridin-4-yl)pyrazin-2-amine]: 100 to 1000 nM. As to `Cc1ccc2nc(-c3nc(N4CCC(C(N)=O)CC4)cnc3N)[nH]c2c1` [Compound I-14, 1-(5-amino-6-(6-methyl-1H-benzo[d]imidazol-2-yl)pyrazin-2-yl)piperidine-4-carboxamide], the Ki was 1000 to 10000 nM.

Turning to `Nc1ncc(N2CCN(S(=O)(=O)c3ccccc3)CC2)nc1C(=O)Nc1ccccn1` [Compound I-207, 3-amino-6-(4-(phenylsulfonyl)piperazin-1-yl)-N-(pyridin-2-yl)pyrazine-2-carboxamide], the Ki was in the range of 100 to 1000 nM. As for `CNCc1ccc(-c2nnc(-c3nc(N4CC[C@H](OC(=O)NCCOC)C4)cnc3N)o2)cc1` [Compound I-373, [(3S)-1-[5-Amino-6-[5-[4-(methylaminomethyl)phenyl]-1,3,4-oxadiazol-2-yl]pyrazin-2-yl]pyrrolidin-3-yl]N-(2-methoxyethyl)carbamate], the Ki lay within 100 to 1000 nM. With `CCCS(=O)(=O)N1CC=C(c2cnc(N)c(-c3nnc(-c4ccccc4)o3)n2)CC1` [Compound I-124, 3-(5-phenyl-1,3,4-oxadiazol-2-yl)-5-(1-(propylsulfonyl)-1,2,3,6-tetrahydropyridin-4-yl)pyrazin-2-amine], the Ki is less than 100 nM.

`CCS(=O)(=O)N1CCN(c2cnc(N)c(-c3cc(-c4ccccc4)no3)n2)CC1` [Compound I-162, 5-(4-(ethylsulfonyl)piperazin-1-yl)-3-(3-phenylisoxazol-5-yl)pyrazin-2-amine]: the Ki lay within 100 to 1000 nM. As to `Nc1ncc(N2CCN(C(=O)C3CCOCC3)CC2)nc1C(=O)Nc1ccccn1` [Compound I-230, 3-amino-N-(pyridin-2-yl)-6-(4-(tetrahydro-2H-pyran-4-carbonyl)piperazin-1-yl)pyrazine-2-carboxamide], the Ki lay within 1000 to 10000 nM. Consider `CCC(=O)N1CCN(c2cnc(N)c(-c3nnc(-c4ccc(CNC)cc4)o3)n2)C[C@@H]1C(C)C` [Compound I-326, 1-[(2S)-4-[5-Amino-6-[5-[4-(methylaminomethyl)phenyl]-1,3,4-oxadiazol-2-yl]pyrazin-2-yl]-2-isopropyl-piperazin-1-yl]propan-1-one], for which the Ki was less than 100 nM. Regarding `CNCc1ccc(-c2nnc(-c3nc(N4CCC(c5ccccc5)C4)cnc3N)o2)cc1` (centres unmarked) [Compound I-316, 3-[5-[4-(Methylaminomethyl)phenyl]-1,3,4-oxadiazol-2-yl]-5-(3-phenylpyrrolidin-1-yl)pyrazin-2-amine], the Ki is less than 100 nM.
